According to patent US20050019746A1, “Apoptosis-related kinase/GPCRs” (EiRx Therapeutics Limited, priority 2003, published 2005):

What was measured:
Type in all cases: cell-based, human
A549 cells = experiment: 10-14 day Clonagenicity Assay (MTT), A549; conditions: for percentage survival relative to the missense, n = 1: independent experiment n = 1, dilution point of maximum toxicity
Method in brief: (§1)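 siRNA knockdown at 2 μg/ml (4 h transfection) in serially halved seed densities; cells grown 10-14 d at 37 °C, 5% CO2, then counted by MTT conversion. Values: mean % survival vs missense oligo at the dilution giving maximum toxicity.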

HCT15 cells = experiment: 10-14 day Clonagenicity Assay (MTT), HCT15; conditions: for percentage survival relative to the missense, n = 1: independent experiment n = 1, dilution point of maximum toxicity
Method in brief: as §1

PC3 cells = experiment: Cell Migration Assay (Chemicon ECM550, Boyden Chamber); conditions: 48 hours post siRNA transfection, 24-hour migration, compared to missense and UPA controls
Method in brief: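 PC3 cells transfected with siRNA (2 μg/ml, 4 h), then assayed 48 h post-transfection in a Boyden chamber migrating toward chemoattractant over 24 h; migration tracked by fluorescent dye, higher fluorescence indicating more migration; compared with missense control and UPA knockdown.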

U251 cells = experiment: 10-14 day Clonagenicity Assay (MTT), U251; conditions: U251, clonagenicity assay, dilution point of maximum toxicity; for percentage survival relative to the missense, n = 1: independent experiment n = 1; for percentage survival relative to the missense, n = 2: independent experiment n = 2; for percentage survival relative to the missense, n = 3: independent experiment n = 3
Method in brief: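 U251 cells were seeded in a 96-well plate, left overnight to adhere at 37° C. in humidified 5% CO2, and serially diluted 1 in 2 from Column 1 to 6. They were transfected for 4 hrs with siRNA oligomers at 2 μg/ml, given fresh medium, changed again at 24 hrs, then incubated 10-14 days with weekly renewal. MTT conversion measured cell number; survival was expressed versus missense control.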

DU145 cells = experiment: 10-14 day Clonagenicity Assay (MTT), DU145; conditions: independent experiment n = 3, dilution point of maximum toxicity
Method in brief: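 Extended-growth viability screen: siRNA transfected at 2 μg/ml into six serially diluted seed densities, quantified by MTT at 10-14 days. Hits needed significant loss versus missense (non-overlapping standard error bars) across two densities; maximum-toxicity point reported as mean % viability.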

[1] = independent experiment n = 2, dilution point of maximum toxicity

| Substance | percentage survival relative to the missense, n = 1 (A549 cells) | percentage survival relative to the missense, n = 1 (HCT15 cells) | percentage survival relative to the missense, n = 2 (HCT15 cells; [1]) | migration of PC3 cells (PC3 cells) | percentage survival relative to the missense, n = 1 (U251 cells) | percentage survival relative to the missense, n = 2 (U251 cells) | percentage survival relative to the missense, n = 3 (U251 cells) | percentage survival relative to the missense, n = 3 (DU145 cells) | percentage survival relative to the missense, n = 2 (A549 cells; [1]) | percentage survival relative to the missense, n = 3 (A549 cells; independent experiment n = 3, dilution point of maximum toxicity) |
| --- | --- | --- | --- | --- | --- | --- | --- | --- | --- | --- |
| siRNA MAPKK5: sense GAGGACAGGUUAAGCUGUGtt, antisense CACAGCUUAACCUGUCCUCtt (sense GAGGACAGGUUAAGCUGUGTT; antisense CACAGCUUAACCUGUCCUCTT; chemistry not given here) | 48.5% | 65.3% | 61.2% | no influence on the migration | 44.8% | 51.4% | 12.4% | 13.6% | – | – |
| siRNA MKNK: sense UACAUGGCCCCUGAGGUAGtt, antisense CUACCUCAGGGGCCAUGUAtt (sense UACAUGGCCCCUGAGGUAGTT; antisense CUACCUCAGGGGCCAUGUATT; chemistry not given here) | 11.5% | 36% | – | inhibition of migration | 33.6% | 59.5% | 69% | 33.9% | 67.9% | 23.3% |
